From patent publication US6362216B1, “Compounds which inhibit tryptase activity” (Array Biopharma Inc., priority 1998, dated 2002)

Key:
Format in all cases: biochemical
[1] = biological target: T1, Bovine pancreatic Trypsin (TPCK-treated) (Bos taurus, UniProt P00760); test: Bovine pancreatic trypsin inhibition, N-α-Benzoyl-L-Arg-pNA substrate
T1 construct: from tissue; host or cells: bovine pancreas
T1 sequence (P00760 24-246): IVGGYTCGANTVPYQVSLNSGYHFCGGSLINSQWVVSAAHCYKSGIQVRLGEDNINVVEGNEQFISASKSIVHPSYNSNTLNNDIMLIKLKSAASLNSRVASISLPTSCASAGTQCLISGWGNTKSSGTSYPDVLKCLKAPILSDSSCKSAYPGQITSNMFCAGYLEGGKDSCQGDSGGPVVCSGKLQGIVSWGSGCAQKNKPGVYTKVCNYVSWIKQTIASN
Procedure: (§1) Protease inhibition was assayed according to published procedures with minor modifications using various proteases and specific chromogenic peptide p-nitroanilide substrates. Assays were performed in Costar ultra-low cluster 96-well microtiter plate (Costar Corning Corp., Cambridge Mass.). Each protease was incubated with various concentrations of the test compound for 15 min. at 37° C. or as otherwise indicated, in specific assay buffer, and the residual activity was then measured by addition of the substrate. p-Nitroaniline produced by the proteolysis was determined by measuring the change in absorbance at 405 nm on a SpectraMAX 340 plate reader (Molecular devices, Sunnyvale, Calif.).
(§2) 1. The inhibition constant, Ki is calculated from individual data points using the equation for a tight-binding inhibitor (See Beith, “Proteinase Inhibitors-Proceedings of 2nd Int. Res. Conference”, Fritz, et al. eds., New York, p.4463-4469 (1974)):
(§3) The Ki values are obtained by correcting Ki ′ values for the effect of substrate concentration according to: [formula]
(§4) 2. Other inhibition data (Ki>>[E]o), the Ki is calculated from using the equations for a competitive inhibitor: [formula]
C. Bovine Pancreatic Trypsin
Bovine pancreatic Trypsin (TPCK-treated) activity was determined by using N-α-Benzoyl-L-Arg-pNA in 50 mM Tris-HCl, pH 8.2, 20 mM CaCl2 (See Somorin, et al., J. Biochem. 85, 157-162 (1979)).
(§5) The inhibition constant (Ki) of the test compounds against each proteolytic enzyme was determined according to Zitnik et al., Biochem. Biophys. Res. Commun. 232, 687-697 (1997)).

Human plasma thrombin = biological target: T2, Human plasma thrombin (Homo sapiens, UniProt P00734); test: Human plasma thrombin inhibition, H-D-Phe-Pip-Arg-pNA substrate
T2 construct: from tissue; host or cells: human plasma
Procedure: as §1, §2, §3, §4
Human plasma thrombin activity was determined by using H-D-Phe-Pip-Arg-pNA in 50 mM Tris-HCl, pH 8.3, 100 mM NaCl, 1% BSA (See Lottenberg, et al., Meth. Enzymol. 80, 341-361 (1981)).
as §5

Human lung tryptase = biological target: T3, Human lung tryptase; test: Human lung tryptase inhibition, chromogenic GPR-pNA substrate
T3 construct: Human lung tryptase purchased from Cortex Biochem (San Leandro, Calif.) was purified further on a Superdex 200 gel-filtration column
Procedure: as §1, §2
vi/vo=[((Ki′+[I]+[E]o)^2−4[I]o[E]o)^½(Ki′+[I]o−[E]o)]/2[E]o
where Ki′ is apparent inhibition constant; vi and vo are the inhibited and uninhibited rates, respectively; [I]o and [E]o are the total concentrations of inhibitor and enzyme, respectively.
[note: [E]o is determined by active site titration of enzyme]
as §3, §4
IC50 is determined by fitting the individual inhibition data point to Sigmoid or four-parameter curve-fit equations.
Human lung tryptase purchased from Cortex Biochem (San Leandro, Calif.) was purified further on a Superdex 200 gel-filtration column. The active-site concentration of the enzyme was determined by spectrophotometric titration with 4-nitrophenyl 4′-guanidinobenzoate according to Schwartz, et al., J. Immunol., 114, 2304-2311 (1990). Tryptase activity was measured according to the procedures of Schwartz, et al., J. Biol. Chem., 261, 7372-7379 (1986) (See also, Schwartz, L. B., Methods In Enzymology, 244, 88 (1994)) with minor modifications, using Tosyl-Gly-Pro-Arg-p-nitroanilide (“GPR-pNA”, Sigma Chemical Co., St. Louis, Mo., T-1637) as a chromogenic substrate. The reaction was performed in 50 mM Tris-HCl, pH 8.0, containing 150 mM NaCl and 0.02% Triton X-100 at 37° C. in Costar ultra-low cluster 96-well microtiter plates (Costar Corning Corp., Cambridge, Mass.). The amount of pNA produced by tryptase was determined by measuring the change in absorbance at 405 nm on a SpectraMAX 340 plate reader (Molecular devices, Sunnyvale, Calif.). The Km for the substrate was determined by Lineweaver-Burk analysis from initial velocities of substrate hydrolysis. The inhibition assay was carried out in a total volume of 200 μL. Tryptase (30 μL-final concentration 1 nM) was incubated with various concentrations of sample compound (50 μL) to be tested in the above assay buffer for 5 min. The reaction was started by the addition of substrate GPR-pNA (40 μL-final concentration 320 μM), and the residual activity was measured after 15 min. of incubation. The inhibition constant, Ki, was determined by fitting the inhibition data to a two-site competitive binding equation using data analysis program GraphPad PRISM (GraphPad Software, Inc., San Diego, Calif.).
as §5

[2] = 50 mM Tris-HCl, pH 8.2, 20 mM CaCl2
[3] = 50 mM Tris-HCl, pH 8.3, 100 mM NaCl, 1% BSA
[4] = tryptase 1 nM, GPR-pNA 320 μM, 50 mM Tris-HCl pH 8.0, 37° C.

SMILES | Ki [1, 2] [µM] | Ki (Human plasma thrombin; [3]) [µM] | Ki (Human lung tryptase; [4]) [µM] | further results
N=C(N)c1ccc2sc(CC(=O)NCc3cccc(N)c3)cc2c1 | 6.4 | > 100 | 0.09 | 
N=C(N)c1ccc2[nH]c(CC(=O)NCCc3ccccc3)nc2c1 [X = H n = 2] |  |  | 5.5 | 
CS(=O)(=O)Nc1cccc(NC(=O)Cc2nc3cc(C(=N)N)ccc3[nH]2)c1 [(3-N(H)SO2CH3)Ph] |  |  | 7.7 | 
N=C(N)c1ccc(NC(=O)Cc2nc3cc(C(=N)N)ccc3[nH]2)cc1 [(4-Amidino)Ph] | 1.7 | > 100 | 0.97 | 
N=C(N)c1ccc2cc(CC(=O)Nc3cccc(N)c3)ccc2c1 | 2.1 | > 100 | 1.2 | 
N=C(N)c1cccc(NC(=O)Cc2nc3cc(C(=N)N)ccc3[nH]2)c1 [(3-Amidino)Ph] | 2.2 | > 100 | 0.52 | 
N=C(N)c1ccc2[nH]c(CC(=O)Nc3ccc(N)cc3)cc2c1 [drawing 15 Indole 5-carboxamidine n=1 m=0] | 3.8 | > 100 | 0.2 | 
N=C(N)c1ccc2[nH]c(CC(=O)Nc3ccc4ccccc4c3)nc2c1 [2-Napthyl] |  |  | 5.2 | 
N=C(N)c1ccc2[nH]c(CC(=O)Nc3ccccc3)nc2c1 [X = H n = 0] |  |  | 9.5 | 
N=C(N)c1ccc2[nH]c(CC(=O)Nc3ccc4ncccc4c3)nc2c1 [6-Quinoline] | 4.6 | > 100 | 0.34 | 
N=C(N)c1ccc2[nH]c(CC(=O)NCc3ccc(N)cc3)cc2c1 [drawing 15 Indole 5-carboxamidine n=1 m=1] | 3.4 | 65 | 0.44 | 
Cc1cc2cc(CNC(=O)Cc3ccc4cc(C(=N)N)ccc4c3)ccc2[nH]1 [drawing 17 Naphthalene 2,6-substitution n=1] |  |  |  | Ki ([1]; the 5th table, unit inferred): 0.34 µM; Ki (Human plasma thrombin; the 5th table, unit inferred): > 100 µM; Ki (Human lung tryptase; the 5th table, unit inferred): 0.01 µM
N=C(N)c1ccc2[nH]c(CC(=O)Nc3cccc(N)c3)nc2c1 [(3-Amino)Ph] | 14.2 | > 100 | 0.29 | 
N=C(N)c1ccc2[nH]c(CC(=O)NCc3cccc(N)c3)nc2c1 [CH2Ph(3-Amino)] | 7.5 | > 100 | 0.49 | 
N=C(N)c1ccc2cc(C(=O)NCc3cccc(N)c3)ccc2c1 | 1.3 | > 100 | 0.08 | 
N=C(N)c1ccc2[nH]c(CC(=O)Nc3ccc(S(N)(=O)=O)cc3)nc2c1 [(4-SO2NH2)Ph] |  |  | 2.2 | 
N=C(N)c1ccc2sc(C(=O)NCc3ccc(N)cc3)cc2c1 | 8.8 | > 100 | 0.44 | 
N#Cc1ccc2[nH]c(Cc3nc4cc(C(=N)N)ccc4[nH]3)nc2c1 |  |  | 0.1 | 
N=C(N)c1ccc2[nH]c(CC(=O)Nc3cccc(N)c3)cc2c1 [drawing 14 Indole 5-carboxamidine n=1 m=0] | 4 | > 100 | 0.39 | 
N=C(N)c1ccc2[nH]c(CC(=O)NC3CCCCC3)nc2c1 [Cyclohexyl] |  |  | 36.9 | 

SMILES | Ki [1, 2] [µM] | Ki (Human plasma thrombin; [3]) [µM] | Ki (Human lung tryptase; [4]) [µM] | further results
CNC(=O)Cc1nc2cc(C(=N)N)ccc2[nH]1 [CH3] |  |  | 42.8 | 
N=C(N)c1ccc2[nH]c(CC(N)=O)nc2c1 [H] |  |  | 31.4 | 
N=C(N)c1ccc2cc(C(=O)NCCc3ccc(N)cc3)ccc2c1 | 0.95 | > 100 | 0.16 | 
N=C(N)c1ccc2[nH]c(CC(=O)NCc3ccccc3)nc2c1 [X = H n = 1] |  |  | 21.8 | 
N=C(N)c1ccc2[nH]c(CC(=O)Nc3cccc(O)c3)nc2c1 [(3-OH)Ph] | 8.7 | > 100 | 0.57 | 
N=C(N)c1ccc2cc(C(=O)Nc3cccc(N)c3)ccc2c1 | 0.43 | > 100 | 0.055 | 
N=C(N)c1ccc2sc(C(=O)NCCc3ccc(N)cc3)cc2c1 | 8.3 | > 100 | 0.17 | 
N=C(N)c1ccc2sc(C(=O)Nc3cccc(N)c3)cc2c1 | 14 | > 100 | 0.52 | 
N=C(N)c1ccc2[nH]c(CC(=O)Nc3ccccn3)nc2c1 [2-Pyridyl] |  |  | 1.2 | 
N=C(N)c1ccc2[nH]c(CC(=O)NCc3ccncc3)nc2c1 [CH2(4-Pyridyl)] |  |  | 4.7 | 
CC(=O)Nc1ccc(NC(=O)Cc2nc3cc(C(=N)N)ccc3[nH]2)cc1 [(4-N(H)COCH3)Ph] |  |  | 6.4 | 
CS(=O)(=O)Nc1ccc(NC(=O)Cc2nc3cc(C(=N)N)ccc3[nH]2)cc1 [(4-N(H)SO2CH3)Ph] |  |  | 3.9 | 
N=C(N)c1ccc2cc(C(=O)NCc3ccc(N)cc3)ccc2c1 | 0.59 | > 100 | 0.21 | 
N=C(N)c1ccc2[nH]c(CC(=O)Nc3ccc4[nH]ccc4c3)nc2c1 [5-Indole] | 21.8 | > 100 | 0.81 | 
N=C(N)c1ccc2[nH]c(CC(=O)NCCc3ccncc3)nc2c1 [CH2CH2(4-Pyridyl)] |  |  | 1.3 | 
CCNC(=O)Cc1nc2cc(C(=N)N)ccc2[nH]1 [CH2CH3] |  |  | 7.4 | 
N=C(N)c1ccc2sc(C(=O)NCc3cccc(N)c3)cc2c1 | 9.1 | > 100 | 0.22 | 
N=C(N)c1ccc2[nH]c(CC(=O)NCc3ccc(CN)cc3)nc2c1 [CH2Ph(4-CH2NH2)] |  |  | 2.5 | 
N=C(N)c1ccc2[nH]c(CC(=O)NC3CCN(Cc4ccccc4)CC3)nc2c1 [4-Piperidinyl(N-benzyl)] |  |  | 1.7 | 
CCCNC(=O)Cc1nc2cc(C(=N)N)ccc2[nH]1 [CH2CH2CH3] |  |  | 9.6 | 
